Blank lines part the entries; values can stand above or below the molecule they belong to.
Assays:
[1] = target: T1, paf receptors of formaldehyde-treated platelets (Homo sapiens, UniProt P25105); experiment: Binding of [3H]alkyl-paf to formaldehyde-fixed platelets (FIGS. 6 and 7); details: 30 min; for inhibition of bound [3H]alkyl-paf to stiffened platelets: FIG. 7, [3H]alkyl-paf 0.65 nM, 20° C., n=4
T1 construct: endogenous in cells; host or cells: washed platelets fixed with 1% formaldehyde for 30 min
Procedure: An extract of whole blood, namely “biological paf” replaces [^3H]alkyl-paf out of the binding and bind to similar alkyl receptors. This competitive inhibition is paralleled with similar effects of synthetic paf and with Ginkgoloides wherein WEB 2086 is used here as the known guiding substance for chlorobenzo(dia)zepines.
“Biological paf” is used here for the first time as non-separated ethanol extract of whole blood (without HPLC). This dry extract is diluted before it is quantified using aggregation of rabbit platelets in the presence of aspirin and CP/CPK. The novel methods allow for the first time testings without albumin so that alkyl ligands with lower cell affinity compared to albumin can bind in a detectable manner. For example, alkyl lipids without the choline group (alkyl-LPA) bind otherwise in deeper regions of the membranes of untreated cells and/or are rapidly incorporated into free albumin. In addition, the method is independent from calcium so that also calcium-independent alkyl ligands can be inhibited here (e.g. lyso paf). The clinical success against alkyl ligands is thus supported and can be carried out by skilled persons.
The FIGS. 5 to 7 thus show the novel screening procedure solves a novel technical problem, namely the variety of damaging alkyl lipids. The quantification is easier using fixed cells as the difficult acetylation step of alkyl lipids is removed which is required for calcium dependent quantification methods. Using fixed cells, cell lines also labelled antibodies and/or soluble transport-binding proteins can be tested and produced.
(§1) FIGS. 5 to 7 investigated for the first time binding of [^3H]alkyl-paf or [^3H]acetyl group after treatment with formaldehyde (1%, 30 min) comparing different temperatures, indicated concentrations and said Ginkgoloides. The allosteric binding of [^3H]alkyl groups was reached only at 20° C. while [^3H]acetyl groups bound at 4° C. excluding allosteric effects.
Platelets were treated with formaldehyde (1%, 30 min, n=6). Values are expressed as bound [^3H]alkyl-paf to […]. […]

[2] = system: washed aspirinated platelets; experiment: Binding of [3H]alkyl-paf / [3H]alkyl-lyso paf to washed aspirinated platelets and formation of AAGPC, LA-paf (FIG. 2); format: cell-based, human; details: FIG. 2C; normolipidemic platelets, [3H]-alkyl-lyso paf 0.065 nM, 40 nM antagonist, 0.25% BSA
Procedure: These women with “OMIH”-syndrome show overweight (aged 34±11 years, BMI: […]), raised LDL (167±15 mg/dl, HDL: 76±41 mg/dl) and triglyceride levels (206±27 mg/dl) borderline hypertension (125±13/88±10 mmHg) and disturbed glucose tolerance (1 h: 170±61 mg/dl).
Ginkgoloides with free albumin (BSA) inhibited here the binding of [^3H]alkyl-paf to “OMIH”-platelets after three washes (FIG. 2 A+B). […] Normolipidemic platelets do nearly not incorporate [^3H]alkyl-paf or [^3H]alkyl-lyso paf and form nearly no AAGPC and LA-paf in the presence of Ginkgoloides and free albumin (FIG. 2C).
AAGPC and LA-paf are chemically alkyl-acyl-sn-glycero-phosphocholines. […] Values are fmol per 10^8 platelets and are means±1 S.D. from three different experiments as described (R. Korth et al. Chem. Phys. Lipids 70(1994), 109-119).

[3] = system: metabolic syndrome mediated by LA-paf; details: Wu et al. J. Int. Med. 246, 1999; cited from earlier work
[4] = target: T1, paf receptors of formaldehyde-treated platelets; experiment: Binding of [3H]acetyl paf to formaldehyde-fixed platelets at 4° C. (FIG. 5); details: unlabeled paf 50 nM, [3H]acetyl paf 0.65 nM or 0.065 nM
Procedure: (FIG. 5D versus 5C). The allosteric alkyl effects are inhibited by stiffening of the membrane so that the scavenger-like allosteric configuration change of cells is shown as mentioned before. In contrast, the [^3H]acetyl group of paf binds at 4° C. to fixed cells treated prior to the last wash with formaldehyde to be subsequently cooled and stiffened (1%, 30 min, A+B). The acetyl group binds and covers paf receptors without allosteric upregulation so that acetylating compounds are using this effect in accordance with the invention.
as §1
Unlabeled paf (50 nM) competed showing specific binding of [^3H]acetyl paf. […] Next, [^3H]alkyl-paf failed binding to stiffened platelets at 4° C. showing moderate specific binding only at 20° C. (C: 0.65 nM, 30 min, 20° C.). […] Values are expressed as bound labelled ligands to 10^8 platelets. Platelets were separated with vacuum filtration and means±1 S.D. are from three experiments.

human neutrophils = experiment: Formation of labeled AAGPC+LA-paf by neutrophils (FIG. 4); format: cell-based; details: 0.25% BSA
Procedure: The non-differentiated washed blood leukocytes incorporate here [^3H]alkyl-paf with intermediate of [^3H]alkyl-lyso paf and form alkyl lipids (AAGPC+LA paf) in a saturated manner (A: 0.65 nM vs. B: 6.5 nM) wherein unlabelled paf fails to replace (B, 5 nM). Thus, at least one non-specific transport protein is indicated (e.g. acetylhydrolase) on undifferentiated cells. The less differentiated cells are invented here as a model for monocytes, endothelial cells, glia cells, cartilage cells, adipocytes, endogenous stem cells etc. The acetylhydrolases on plasma membranes of leukocytes remove alkyl lipids and these cells are then pre-activated, differentiated and ready to emigrate. Non-specific antagonists e.g. free albumin protect against alkyl ligands and compete with cells for binding of alkyl lipids. The fatty decline of cells in the entire organisms is clinically healed here. […]
Washed intact cells were incubated with normal or excess concentrations of [^3H]-alkyl-paf forming then the stable amount of AAGPC & LA (A: 0.65 nM or B: 6.5 nM). […] Values are expressed as percent of added label (2.5×10^6 cells/500μl, 0.25% BSA, n=3, see R.-M. Korth, Int. Arch. All. Imm. 113, p 460-464, 1997). […]

intact human platelets = experiment: Lipoprotein-triggered catabolism of [3H]alkyl-paf and formation of AAGPC and LA-paf by intact platelets (FIG. 3); format: cell-based; details: FIG. 3 C+D; [3H]alkyl-paf 0.65 nM; apo B 0.1 mg/ml, VLDL 80 μg/ml
Procedure: Only LDL but not ApoB and not VLDL overcome the protection by albumin (FIG. 3E versus 3D). […] In the presence (A+C) or absence (B) of washed platelets nearly no AAGPC with derivatives and products is formed. The acetylhydrolases form lyso paf and LDL, of apoB and VLDL also form lyso paf whereby the uptake of lyso paf is triggered by LDL.
[^3H]alkyl-lyso paf was stable in the albumin buffer as well (B: 0.25% BSA, 30 min, 20° C.). […] Overall, purified LDL-particles rather than isolated apoB trigger uptake and formation of AAGPC and/or LA-paf. Values are expressed as percent of added label bound to platelets. Cells were separated using vacuum filtration as described (R. Korth et al. Chem. Phys. Lipids 70, 109-119, 1994). Values were expressed as percent of added label. Values are means±1.S.D. of three different experiments.

T1 sequence (P25105 whole entry): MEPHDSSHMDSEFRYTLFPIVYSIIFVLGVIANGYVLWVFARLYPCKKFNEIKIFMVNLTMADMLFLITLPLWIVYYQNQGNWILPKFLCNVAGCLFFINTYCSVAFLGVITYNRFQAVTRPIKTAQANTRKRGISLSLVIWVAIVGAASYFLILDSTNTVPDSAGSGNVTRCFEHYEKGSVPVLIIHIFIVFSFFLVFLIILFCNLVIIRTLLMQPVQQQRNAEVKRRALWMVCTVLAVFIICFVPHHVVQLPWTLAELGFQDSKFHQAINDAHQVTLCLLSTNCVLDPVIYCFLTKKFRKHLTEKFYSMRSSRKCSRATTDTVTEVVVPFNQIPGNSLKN

- inhibition of bound [3H]alkyl-paf ([1]; FIG. 6, platelets treated with formaldehyde 1%, 30 min 20° C.): concentration-dependent inhibition
Molecule: CC1C(=O)OC2C(O)C34C5CC(C(C)(C)C)C36C(OC(=O)C6O)OC4(C(=O)O5)C12O (stereo not drawn) [BN 52021]

- inhibition of bound [3H]alkyl-paf to stiffened platelets [1]: inhibited
Molecule: Cc1nnc2n1-c1sc(CCC(=O)N3CCOCC3)cc1C(c1ccccc1Cl)=NC2 [WEB 2086]
- formation of cellular metabolites (AAGPC, LA-paf) from [3H]-alkyl-lyso paf [2]: without relevant formation of indicated cellular metabolites
- treatment of metabolic syndrome with thickening of the intima and borderline hypertension [3]: successfully treated

Molecule: CCCCCCCCCCCCCCCCOC[C@H](COP(=O)([O-])OCC[N+](C)(C)C)OC(C)=O [synthetic paf]
- inhibition of bound [3H]alkyl-paf to stiffened platelets [1]: inhibited at low concentrations
- competition with [3H]acetyl paf binding [4]: competed
- competition with formation of AAGPC/LA-paf (human neutrophils; unlabeled paf 5 nM, [3H]-alkyl-paf 0.65 nM or 6.5 nM, n=3): did not compete

Molecule: ApoB: isolated apo B (Sigma Chemical)
- formation of lyso paf and cellular uptake (intact human platelets): form lyso paf without cellular uptake

Molecule: Purified albumin: free, delipidated albumin (BSA), representative non-specific antagonist
- protection of intact cells as non-specific antagonist (human neutrophils): protected
